Experimental data from US20220040280A1, “INHIBITORS AND USES THEREOF” (UNIVERSITY OF CANBERRA, priority 2016, published 2022).
“Also recorded” adds a separate entry of the source. Residues, ends and D or L forms follow the SMILES beside them. *: point of attachment. Myristoyl = CCCCCCCCCCCCCC(=O)*

B1: IFNγ: interferon gamma used as stimulus (10 μg/mL) (protein, UniProt P01579 24-161, looked up)
Interferon gamma: QDPYVKEAENLKKYFNAGHSDVADNGTLFLGILKNWKEESDRKIMQSQIVSFYFKLFKNFKDDQSIQKSVETIKEDMNVKFFNSNKKKRDDFEKLTNYSVTDLNVQRKAIHELIQVMAELSPAAKTGKRKRSQMLFRG

Experiments:
[1] = test system: MDA-MB-231 breast cancer cells; test: Flow cytometry of stimulated MDA-MB-231 cells (PD-L1, CD44, CD24); assay type: cell-based, human; conditions: for Median Fluorescence Intensity (MFI) of PD-L1, change on stimulation: MDA-MB-231 cells
Experimental: MCF7 and MDA-MB-231 cells were obtained from the American Type Culture Collection (Manassas, Va.). Cells were cultured in DMEM (Invitrogen, Life Technologies, Carlsbad, Calif.) supplemented with 10% FBS, 2 mM L-glutamine, and 1% penicillin-streptomycin-neomycin. MCF7 cells were stimulated with 1.32 ng/ml phorbol 12-myristate 13-acetate (PMA) (Sigma-Aldrich, St Louis, Mo.) or 5 ng/ml recombinant TGF-β1 (R&D Systems, Minneapolis, Minn.) for 60 h. For the co-culture assay MDA-MB-231 cells were stimulated with Jurkat T-cells at defined ratios.
(§1) Isolated PBMCs and CTCs were stained with CD45−APC, pan-cytokeratin (CK)-FITC, EpCAM-Percp-Cy5.5 and PD-L1-BV421 antibodies. Co-cultured MDA-MB-231 cells were stained with CD44, CD24 and PD-L1. Flow cytometric analysis was performed on single cell suspensions for using the BD LSR II Flow Cytometer.

[2] = test system: MDA-MB-231 breast cancer cells; test: as above; assay type: cell-based, human; conditions: IFNγ 10 μg/mL, PMA 24 ng/mL, 24 or 48 hours
[3] = molecular target: T1, LSD1 phosphorylated at serine 111 (LSD1s111p) (Homo sapiens, UniProt O60341); test: Confocal microscopy of LSD1s111p in MDA-MB-231 cells treated with peptide inhibitors; assay type: cell-based; conditions: relative to control, FIG. 4
T1 construct: endogenous in cells; host or cells: MCF7 (non-stimulated or PMA-stimulated) and MDA-MB-231 breast cancer cells
Experimental: (§2) Cells were probed with either rabbit antibodies to LSD1s111p (Merck ABE1462), EGFR (AB2430), MET (ab51067), PD-L1 (sc-50298), goat antibodies to PD-L1 (sc-19091), SC-14033), (sc-19096), mouse antibodies to Cytokeratin (Miltenyi 130-090-866), CSV (Abnova H00007431-M08), vimentin (SC-6260) followed by visualisation with secondary anti mouse Alexa-Fluor 568 (A10037), secondary anti rabbit Alexa-Fluor 488 (A21206) or secondary anti goat Alexa-Fluor 633 (A21082).
(§3) MDA-MB-231 or MCF7 cells were treated with one of L1, L2 or L3 and a control. Cells were then fixed with 3.7% formaldehyde and permeabilized with 2% Triton-X-100, then probed with a primary mouse antibody against LSD1 or a primary rabbit antibody against PD-L1, EGFR or MET, followed by visualization with a secondary goat antibody to mouse or rabbit immunoglobulins conjugated to Alexa-Fluor 488. Confocal laser scanning microscopy was used to measure the Fn/c (ratio of nuclear to cytoplasmic fluorescent intensity) ratio of LSD1 with Fiji-imageJ or the total nuclear fluorescence of PD-L1, EGFR or MET. Values are plotted with significant differences indicated using the Mann-Whitney T-test, with at least 20 cells counted per sample. Representative images for each treatment are shown.

MCF7 cells = conditions: PMA stimulated MCF7 cells, 50 μM and 100 μM tested, FIG. 20
Experimental: (§4) 5×10^4 MCF7 or MDA-MB-231 cells were seeded with 1 mL of complete DMEM in 12 well plates overnight. […] Samples were harvested by trypsinisation followed by washing with DPBS containing 2% HI-FBS. FACS staining were performed using anti-human CD44-APC, anti-human CD24-PE, Hoechst, and anti-human EpCAM antibody cocktails. Data was collected from a BD FACSLSR-II flow cytometer. Treestar FlowJo was used for data analysis.

[4] = molecular target: T1, LSD1 phosphorylated at serine 111 (LSD1s111p); test: Confocal microscopy of LSD1s111p in MCF7 cells treated with peptide inhibitors; assay type: cell-based; conditions: stimulated and non-stimulated MCF7 cells, relative to control, FIG. 4
Experimental: as §2, §3

PD-L1 [5] = test: Confocal microscopy of PD-L1 in MCF7 cells treated with peptide inhibitors; assay type: cell-based, human; conditions: for abrogation of nuclear PD-L1 expression: epithelial non-stimulated MCF7 cells, compared with stimulated cells; for Fn/c ratio (nuclear bias) of PD-L1: peptide treated MCF7 cells; for cytoplasmic/surface expression of PD-L1 (TCFI): stimulated MCF7 cells; for cytoplasmic/surface expression of PD-L1 (TCFI) / expression of nuclear PD-L1 (TNFI): FIG. 5; for expression of nuclear PD-L1 (TNFI): stimulated, mesenchymal MCF7 cells
Experimental: as §2, §3

PD-L1 [6] = test: Confocal microscopy of PD-L1 in MDA-MB-231 cells treated with peptide inhibitors; assay type: cell-based, human; conditions: for cytoplasmic/surface expression of PD-L1 (TCFI) / expression of nuclear PD-L1 (TNFI) / PD-L1 nuclear expression: MDA-MB-231 cells; for cytoplasmic/surface expression of PD-L1 (TCFI) / expression of nuclear PD-L1 (TNFI): FIG. 6; for PD-L1 nuclear expression: in comparison to the control, FIG. 22 (50 μM and 100 μM); for Fn/c ratio (nuclear bias) of PD-L1: peptide treated MDA-MB-231 cells
Experimental: as §2, §3

EGFR = test: Confocal microscopy of EGFR in MDA-MB-231 cells treated with peptide inhibitors; assay type: cell-based, human; conditions: in comparison to control, FIG. 23
Experimental: as §3

LSD1 = molecular target: T2, LSD1 (Homo sapiens, UniProt O60341); test: LSD1 nuclear translocation in MDA-MB-231 cells, confocal microscopy; assay type: cell-based; conditions: FIG. 19 and FIG. 31
T2 construct: endogenous in cells; host or cells: MCF7 (non-stimulated or PMA-stimulated) and MDA-MB-231 breast cancer cells
Experimental: as §3
Confocal laser scanning microscopy was performed on MDA-MB-231 cells treated with a LSD1 peptide inhibitor, L1, L2 or L3, or vehicle alone. Cells were fixed with 3.7% formaldehyde and permeabilized with 2% Triton-X-100, and then probed with a primary mouse antibody to LSD1, followed by the corresponding secondary antibody conjugated to Alexa-Fluor 488. Confocal laser scanning microscopy was used to determine the Fn/c ratio of LSD1 with image-J. Values are plotted with significant differences indicated. Data shown represent the mean±SE for at least 20 individual cells.

MET = test: Confocal microscopy of MET in MDA-MB-231 cells treated with peptide inhibitors; assay type: cell-based, human; conditions: in comparison to control, FIG. 24
Experimental: as §3

MDA-MB-231 cells = conditions: 100 μM, FIG. 21
Experimental: as §4

PD-L1 [7] = test: FACS of PD-L1 in CD45-CK+ circulating tumor cells from patient liquid biopsies; assay type: cell-based, human; conditions: CD45-CK+ CTCs
Experimental: as §1

[8] = stimulated MDA-MB-231, 24 hours
[9] = stimulated MDA-MB-231, 48 hours

nuclear expression of LSD1s111p (TNFI) [3]	nuclear expression of LSD1s111p (TNFI) [4]	Molecule	Median Fluorescence Intensity (MFI) of PD-L1, change on stimulation [1]	CD44^hi CD24^lo (Frequency of parent, %) [1, 8] [%]	CD44^hi CD24^lo, PD-L1+ (Frequency of parent, %) [1, 8] [%]	Mean Fluorescence Intensity of Comp Pacific Blue-A PD-L1, CD44^hi CD24^lo, PD-L1+ subset [1, 8]	Mean Fluorescence Intensity of Comp Pacific Blue-A PD-L1, PD-L1+ subset [1, 8]	PD-L1+ (Frequency of parent, %) [1, 8] [%]	abrogation of nuclear PD-L1 expression (PD-L1 [5])	Fn/c ratio (nuclear bias) of PD-L1 (PD-L1 [5])	cytoplasmic/surface expression of PD-L1 (TCFI) (PD-L1 [5])	expression of nuclear PD-L1 (TNFI) (PD-L1 [5])	cytoplasmic/surface expression of PD-L1 (TCFI) (PD-L1 [6])	expression of nuclear PD-L1 (TNFI) (PD-L1 [6])	PD-L1 nuclear expression (PD-L1 [6])	Fn/c ratio (nuclear bias) of PD-L1 (PD-L1 [6])	EGFR nuclear expression (TNFI) (EGFR)	nuclear translocation of LSD1 (Fn/c) (LSD1)	MET nuclear expression (TNFI) (MET)	cancer stem cell formation (MDA-MB-231 cells)	other results
–	–	CCCCCCCCCCCCCC(=O)O[C@@H]1[C@@H](C)[C@@]2(O)[C@@H](C=C(CO)C[C@]3(O)C(=O)C(C)=C[C@@H]23)[C@@H]2C(C)(C)[C@]12OC(C)=O [PMA, phorbol 12-myristate 13-acetate, reference compound]	decreased	98.4	98.6	3145	3126	98.5	–	–	–	–	–	–	–	–	–	–	–	–	CD44^hi CD24^lo (Frequency of parent, %) [1, 9]: 98.3%; CD44^hi CD24^lo, PD-L1+ (Frequency of parent, %) [1, 9]: 99.2%; Mean Fluorescence Intensity of Comp Pacific Blue-A PD-L1, CD44^hi CD24^lo, PD-L1+ subset [1, 9]: 4016; Mean Fluorescence Intensity of Comp Pacific Blue-A PD-L1, PD-L1+ subset [1, 9]: 3983; PD-L1+ (Frequency of parent, %) [1, 9]: 99.1%; frequency (%) of PD-L1+ cells, change on stimulation [2]: not altered
significantly abrogated	significantly abrogated	CCCCCCCCCCCCCC(=O)N[C@@H](CCCNC(=N)N)C(=O)N[C@@H](CCCNC(=N)N)C(=O)N[C@H](C(=O)N[C@@H](CO)C(=O)N[C@@H](CCCNC(=N)N)C(=O)N[C@@H](CCCNC(=N)N)C(=O)N[C@@H](CCCCN)C(=O)N[C@@H](CCCNC(=N)N)C(=O)N[C@@H](C)C(=O)N[C@@H](CCCCN)C(=O)N[C@H](C(=O)O)C(C)C)[C@@H](C)O [Peptide L1, Myristoyl-RRTSRRKRAKV-OH] (Myristoyl-RRTSRRKRAKV-OH)	–	–	–	–	–	–	lessened	strongly nuclear	significantly inhibited	significantly abrogated	significantly inhibited	significantly abrogated	abrogated	strongly nuclear	significant abrogation	inhibited; also recorded: clearly abrogated	significant abrogation	significant reduction	cancer stem cell formation (MCF7 cells): inhibited
significantly abrogated	significantly abrogated	CCCCCCCCCCCCCC(=O)N[C@@H](CCCNC(=N)N)C(=O)N[C@@H](CCCNC(=N)N)C(=O)N[C@H](C(=O)N[C@@H](C)C(=O)N[C@@H](CCCNC(=N)N)C(=O)N[C@@H](CCCNC(=N)N)C(=O)N[C@@H](CCCCN)C(=O)N[C@@H](CCCNC(=N)N)C(=O)N[C@@H](C)C(=O)N[C@@H](CCCCN)C(=O)N[C@H](C(=O)O)C(C)C)[C@@H](C)O [Peptide L2, Myristoyl-RRTARRKRAKV-OH] (Myristoyl-RRTARRKRAKV-OH)	–	–	–	–	–	–	lessened	strongly nuclear	significantly inhibited	significantly abrogated	significantly inhibited	significantly abrogated	abrogated	strongly nuclear	reduction	inhibited; also recorded: clearly abrogated	significant abrogation	significant reduction	cancer stem cell formation (MCF7 cells): inhibited
significantly abrogated	significantly abrogated	CCCCCCCCCCCCCC(=O)N[C@@H](CCCNC(=N)N)C(=O)N[C@@H](Cc1c[nH]c2ccccc12)C(=O)N[C@@H](CCCNC(=N)N)C(=O)N[C@@H](CCCNC(=N)N)C(=O)N[C@H](C(=O)N[C@@H](C)C(=O)N[C@@H](CCCNC(=N)N)C(=O)N[C@@H](CCCNC(=N)N)C(=O)N[C@@H](CCCCN)C(=O)N[C@@H](CCCNC(=N)N)C(=O)N[C@@H](C)C(=O)N[C@@H](CCCCN)C(=O)N[C@H](C(=O)O)C(C)C)[C@@H](C)O [Peptide L3, Myristoyl-RWRRTARRKRAKV-OH] (Myristoyl-RWRRTARRKRAKV-OH)	–	–	–	–	–	–	lessened	strongly nuclear	significantly inhibited	significantly abrogated	significantly inhibited	significantly abrogated	abrogated	strongly nuclear	reduction	inhibited; also recorded: clearly abrogated	significant abrogation	significant reduction	–
–	–	CN(C)C(=O)c1cc2cnc(Nc3ccc(N4CCNCC4)cn3)nc2n1C1CCCC1 [Ribociclib]	–	–	–	–	–	–	–	–	–	–	–	–	–	–	–	–	–	–	PD-L1 nuclear (nPD-L1) expression (PD-L1 [7]; Patient A, FIG. 18A): greatest inhibition; PD-L1 nuclear expression (PD-L1 [7]; Patient B, FIG. 18B): inhibited; PD-L1 surface/cytoplasmic expression (PD-L1 [7]; Patient B, FIG. 18B): inhibited
–	–	B1	increases	77.7	99.7	6173	6015	99.7	–	–	–	–	–	–	–	–	–	–	–	–	CD44^hi CD24^lo (Frequency of parent, %) [1, 9]: 98.9%; CD44^hi CD24^lo, PD-L1+ (Frequency of parent, %) [1, 9]: 99.7%; Mean Fluorescence Intensity of Comp Pacific Blue-A PD-L1, CD44^hi CD24^lo, PD-L1+ subset [1, 9]: 6173; Mean Fluorescence Intensity of Comp Pacific Blue-A PD-L1, PD-L1+ subset [1, 9]: 6133; PD-L1+ (Frequency of parent, %) [1, 9]: 99.7%; frequency (%) of PD-L1+ cells, change on stimulation [2]: not altered
